This is an account of results in patent publication US6846500B1, “Oral care chewing gums and method of use” (Cadbury Adams USA LLC, priority 1999, dated 2005).

The nature of this data set: Calcium precipitation on mixing CPP-ACP and sodium bicarbonate; calcium retained on filter by Atomic Absorption. The class given is physicochemical, human. The procedure:
The in vivo test was done to first determine the release of CPP-ACP. A five person panel chewed a gum containing 1% CPP-ACP. […] CPP-ACP and sodium bicarbonate at these concentration were incubated in a 30 ml pooled human saliva with moderate shaking at 37° C. for 3 minutes to test precipitation upon consumption of the gum and at 1 hour to show how longer contact time would precipitate calcium carbonate. The resultant pH of the incubation solution was approximately 7. The solution was filtered, the retentate was rinsed with deionized H2O to remove any soluble calcium and the result was analyzed for calcium content by Atomic Absorption analysis. As a control an aqueous solution of 30 g of a 0.3% CPP-ACP solution was pass through the filter paper.

As to `O=C([O-])O.[Na+]` [NaHCO3, sodium bicarbonate], the Calcium retained is given as 1.700 mg (30 g of saliva stored at 37° C. for 3 minutes); 1.7 mg (30 g of saliva stored at 37° C. for 3 minutes, listed as sodium bicarbonate); 1.600 mg (30 g of saliva stored at 37° C. for 1 hour).
